Source: patent US11066455B2, “Tmem100 peptides and variants thereof and their use in treating or preventing diseases or conditions” (The Johns Hopkins University, priority 2014, dated 2021)
* marks the point of attachment. Myristoyl = CCCCCCCCCCCCCC(=O)*

Test system: T1, TRPA1
T1 construct: percentage of cells responsive to CA; other: shortened CPP 2 μM; CA 10 μM; HEK293 TRPA1+TRPV1; vs scrambled; percentage of cells responsive to MO; other: peptide 200 nM pre-treatment; 500 nM MO; HEK293T TRPA1+TRPV1; percentage of cells that respond to 100 nM MO and 10 μM CA; other: HEK293T TRPA1+TRPV1, Tmem100-3Q-transfected vs lacki; reduction in the percentage of cells responding to MO
Assay: Calcium imaging of HEK293T cells expressing TRPA1 and TRPV1 (MO or CA)
Assay type: cell-based
Description: Calcium imaging assays were performed as previously described (Liu et al., 2009). Cells were loaded with 2 μM fura 2-acetomethoxy ester (Molecular Probes) for 30 min in the dark at room temperature or for 45 minutes at 37° C. for DRG and cell lines, respectively. After washing, cells were imaged at 340 and 380 nm excitation to detect intracellular free calcium under a fluorescent microscope (Nikon Eclipse TE2000-S) and Lambda 10B shutter (Sutter Instrument). The cells were bathed in calcium imaging buffer (pH 7.45, 130 mM NaCl, 3 mM KCl, 2.5 mM CaCl2, 10 mM HEPES, 10 mM glucose, 1.2 mM NaHCO3, with sucrose to increase osmolarity to 290 mOsm). The reagents and buffers were applied through a gravity perfusion system at a rate of […], including mustard oil (Sigma 377430), cinnamaldehyde (Sigma C80687), menthol (Sigma M2780), and capsaicin (Sigma M2028). Cells with high baseline 340/380 values (>1.5) were excluded for analysis. For DRG neurons, IB4 staining was performed in the chamber with the dilution of 1:200 (Molecular Probes 121412) for 160 seconds before washing off at the end of each test. Images were processed and analyzed with NIS-Elements BR 2.30 software (Nikon). A responsive cell was defined as one that with greater than a 20% increase in the 340/380 ratio above the baseline. Intracellular calibration for calcium was performed as previously described (Akopian et al., 2007). The data was analyzed with the experimenter blinded to the genotypes or constructs transfected.
DRG from 3 to 4-week old mice were collected in cold DH10 medium (90% DMEM/F-12, 10% FBS, 100 U/ml penicillin, and 100 μg/ml Streptomycin, Gibco) and treated with enzyme solution in HBSS containing collagenase (1.65 mg/mL, Worthington CLS I) and dispase (3.55 mg/mL, GIBCO 17105-041) at 37° C. for 30 minutes. After trituration and centrifugation, cells were resuspended in DH10, plated on glass coverslips coated with poly-D-lysine (0.5 mg/ml, Stoughton, Mass.) and laminin (10 μg/ml, Invitrogen), and cultured overnight in an incubator at 37° C. The neurons were tested within 24 hours. HEK293T, COS-7, and CHO cells were cultured in a medium consisting of 90% DMEM, 10% FBS, 100 U/mL penicillin, and 100 μg/ml Streptomycin. GlutaMAX (Gibco 35050-061) was also added for CHO cells. For calcium imaging, the cells were plated on glass coverslips coated with poly-D-lysine (0.5 mg/ml, Stoughton, Mass.). In the HEK cell studies the denominator is the cells expressing both TRPA1, TRPV1, and the designated constructs (i.e. Tmem100 or Tmem100-3Q mutant). mCherry:TRPV1:Tmem100 was transfected in 1:8:8 ratio into TRPA1 stable cell line (obtained from N. Tigue from GlaxoSmithKline) and used mCherry as the marker for the cells expressing the constructs 18 hours after transfection with Lipofectamine 2000. The transfection efficiency for Tmem100+TRPV1+TRPA1 triple-positive cells is 27±3%. This efficiency was determined by mCherry(+) divided by total number of cells in the bright fields.
The sequence from the last 28 amino acids of the C-terminus of the Tmem100-3Q mutant protein was synthesized and myristoylated at its N-terminus (myr-[…]-COOH) (SEQ ID NO: 8) by Twentyfirst Century Biochemicals. […] For the calcium imaging assay, the peptides were added to the calcium imaging buffer with a final concentration of 200 nM and incubated for at least […] at room temperature. For the mice behavioral assays, the peptides (5 μL, 2 mM) were injected subcutaneously in the hindpaw at least 30 minutes before testing. For the rat behavior assays, human T100-3Q (h-T100), a palmitoylated cell permeable peptide mutated based on the C terminus of human sequence in Tmem100, was applied. The sequence is Palmitoyl-[…]-COOH (SEQ ID NO: 7).

| Molecule | percentage of cells responsive to MO (peptide 200 nM pre-treatment, 500 nM MO, HEK293T TRPA1+TRPV1) [%] | percentage of cells that respond to 100 nM MO and 10 μM CA (HEK293T TRPA1+TRPV1, Tmem100-3Q-transfected vs lacking Tmem100-3Q) |
| --- | --- | --- |
| myr-QRVLEQVLQNWSRRANVKQAQKFQVKCT-COOH (Myristoyl-QRVLEQVLQNWSRRANVKQAQKFQVKCT-OH; SMILES CCCCCCCCCCCCCC(=O)N[C@@H](CCC(N)=O)C(=O)N[C@@H](CCCNC(=N)N)C(=O)N[C@H](C(=O)N[C@@H](CC(C)C)C(=O)N[C@@H](CCC(=O)O)C(=O)N[C@@H](CCC(N)=O)C(=O)N[C@H](C(=O)N[C@@H](CC(C)C)C(=O)N[C@@H](CCC(N)=O)C(=O)N[C@@H](CC(N)=O)C(=O)N[C@@H](Cc1c[nH]c2ccccc12)C(=O)N[C@@H](CO)C(=O)N[C@@H](CCCNC(=N)N)C(=O)N[C@@H](CCCNC(=N)N)C(=O)N[C@@H](C)C(=O)N[C@@H](CC(N)=O)C(=O)N[C@H](C(=O)N[C@@H](CCCCN)C(=O)N[C@@H](CCC(N)=O)C(=O)N[C@@H](C)C(=O)N[C@@H](CCC(N)=O)C(=O)N[C@@H](CCCCN)C(=O)N[C@@H](Cc1ccccc1)C(=O)N[C@@H](CCC(N)=O)C(=O)N[C@H](C(=O)N[C@@H](CCCCN)C(=O)N[C@@H](CS)C(=O)N[C@H](C(=O)O)[C@@H](C)O)C(C)C)C(C)C)C(C)C)C(C)C) [scrambled] | 18±2.8 |  |
| Tmem100-3Q mutant (full-length, mouse) (protein) MTEESTKENLGAPKSPTPVTMEKNPKREVVVTTGPLVSEVQLMAATGGAELSCYRCIIPFAVVVFITGIVVTAVAYSFNSHGSIISIFGLVLLSSGLFLLASSALCWKVRQRNKKVQQQESQTALVVNQRCLFA |  | significantly lower |
